Results: patent US8871756B2 (Hoffmann-La Roche Inc., priority 2011, dated 2014)

What follows are compounds tested on RSV Long strain (assay: Viral cytopathic effect (CPE) assay, anti-RSV activity). Conditions: RSV Long strain (ATCC); cell viability after 6 days, Cell Counting kit-8.
Assay type: cell-based, Respiratory Syncytial Virus
Summary of the method: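 EC50 was derived from CCK-8 viability at 450/630 nm measured 6 days post-infection. Infection used enough RSV Long strain for approximately 80–90% cytopathic effect, in the presence of half-log serially diluted compound. Cells were plated the day before at 6×10^3 per well in DMEM/10% FBS.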

Row | Compound | EC50 [µM]
1 | Cc1ccc2nc(N3CC[S+]([O-])c4ccccc4C3)cc(NCC3(N)COC3)c2c1 (single isomer, unassigned; (-)) [Example 18-3, (−)-N-[(3-Aminooxetan-3-yl)methyl]-6-methyl-2-[1-oxido-2,3-dihydro-1,4-benzothiazepin-4(5H)-yl]quinolin-4-amine] | 0.014

Same assay, conditions: human respiratory syncytial virus, 144 h, RSV Long strain (ATCC); cell viability after 6 days, Cell Counting kit-8

Row | Compound | EC50 [µM]
2 | Cc1ccc2nc(N3CCS(=O)(=O)c4ccccc4C3)cc(NCC3CCNCC3)c2c1 [Example 3-29, 2-(1,1-Dioxido-2,3-dihydro-1,4-benzothiazepin-4(5H)-yl)-6-methyl-N-(piperidin-4-ylmethyl)quinolin-4-amine] | 0.022
3 | NCC(F)(F)CNc1cc(N2CCS(=O)(=O)c3ccccc3C2)nc2ccc(Cl)cc12 [Example 3-20, N-[6-Chloro-2-(1,1-dioxido-2,3-dihydro-1,4-benzothiazepin-4(5H)-yl)quinolin-4-yl]-2,2-difluoropropane-1,3-diamine] | 0.507
4 | Cc1ccc2nc(N3CCS(=O)(=O)c4ccccc4C3)cc(NC(=O)C3CCN3)c2c1 (stereo not shown) [Example 49, N-[2-(1,1-Dioxido-2,3-dihydro-1,4-benzothiazepin-4(5H)-yl)-6-methylquinolin-4-yl]azetidine-2-carboxamide] | 0.721
5 | Cc1ccc2nc(N3CCS(=O)(=O)c4ccccc4C3)cc(NCCNCCO)c2c1 [Example 3-42, 2-[(2-{[2-(1,1-Dioxido-2,3-dihydro-1,4-benzothiazepin-4(5H)-yl)-6-methylquinolin-4-yl]amino}ethyl)amino]ethanol] | 0.007
6 | Cc1ccc2nc(N3CCS(=O)(=O)c4ccccc4C3)cc(NC(C)(C)CN)c2c1 [Example 9-17, N^˜2^˜-[2-(1,1-Dioxido-2,3-dihydro-1,4-benzothiazepin-4(5H)-yl)-6-methylquinolin-4-yl]-2-methylpropane-1,2-diamine] | 0.025
7 | NCCNc1cc(N2CCCc3cc(Br)ccc3C2)nc2ccc(Cl)cc12 [Example 118-1, N-[2-(7-Bromo-1,3,4,5-tetrahydro-2H-2-benzazepin-2-yl)-6-chloroquinolin-4-yl]ethane-1,2-diamine] | 1.98
8 | Cc1ccc2nc(N3CCS(=O)(=O)c4ccccc4C3)cc(N3C[C@@H](N)[C@H](O)C3)c2c1 (relative stereo) [Example 19-3, trans-4-Amino-1-[2-(1,1-dioxido-2,3-dihydro-1,4-benzothiazepin-4(5H)-yl)-6-methylquinolin-4-yl]pyrrolidin-3-ol] | 0.006
9 | Cc1ccc2nc(N3CCS(=O)(=O)c4ccccc4C3)cc(NC(C)CN)c2c1 (stereo not shown) [Example 9-18, N^˜2^˜-[2-(1,1-Dioxido-2,3-dihydro-1,4-benzothiazepin-4(5H)-yl)-6-methylquinolin-4-yl]propane-1,2-diamine] | 0.01
10 | Cc1ccc2nc(N3CCS(=O)(=O)c4cc(Cl)ccc4C3)cc(NCC3(N)COC3)c2c1 [Example 1-6, N-[(3-Aminooxetan-3-yl)methyl]-2-(8-chloro-1,1-dioxido-2,3-dihydro-1,4-benzothiazepin-4(5H)-yl)-6-methylquinolin-4-amine] | 0.022
11 | Cc1ccc2nc(N3CCS(=O)(=O)c4ccccc4C3)cc(NC3(CCO)COC3)c2c1 [Example 5-12, 3-{[2-(1,1-Dioxido-2,3-dihydro-1,4-benzothiazepin-4(5H)-yl)-6-methylquinolin-4-yl]amino}oxetan-3-ethanol] | 6.25
12 | COc1ccc2c(c1)S(=O)(=O)CCN(c1cc(NCC3(N)COC3)c3cc(Cl)ccc3n1)C2 [Example 3-13, N-[(3-Aminooxetan-3-yl)methyl]-6-chloro-2-(8-methoxy-1,1-dioxido-2,3-dihydro-1,4-benzothiazepin-4(5H)-yl)quinolin-4-amine] | 0.099
13 | CCNC(=O)Nc1cc(N2CCS(=O)(=O)c3ccccc3C2)nc2ccc(C)cc12 [Example 50-2, 1-[2-(1,1-Dioxido-2,3-dihydro-1,4-benzothiazepin-4(5H)-yl)-6-methylquinolin-4-yl]-3-ethylurea] | 2.42
14 | NCCNc1cc(N2CCCc3cccc(F)c3C2)nc2ccc(Cl)cc12 [Example 118-6, N-[6-Chloro-2-(9-fluoro-1,3,4,5-tetrahydro-2H-2-benzazepin-2-yl)quinolin-4-yl]ethane-1,2-diamine] | 0.173
15 | Cc1ccc2nc(N3CCS(=O)(=O)c4ccccc4C3)nc(NCC3(N)COC3)c2c1 [Example 61-1, N-[(3-Aminooxetan-3-yl)methyl]-2-(1,1-dioxido-2,3-dihydro-1,4-benzothiazepin-4(5H)-yl)-6-methylquinazolin-4-amine] | 0.005
16 | Cc1ccc2nc(N3CCS(=O)(=O)c4ccccc4C3)cc(NC(=O)C3CCCNC3)c2c1 (stereo not shown) [Example 3-61, N-[2-(1,1-Dioxido-2,3-dihydro-1,4-benzothiazepin-4(5H)-yl)-6-methylquinolin-4-yl]piperidine-3-carboxamide] | 0.118
17 | Cc1ccc2nc(N3CCSc4ccccc4C3)cc(N3CCC(N)C3)c2c1 (stereo not shown) [Example 4-4, 1-[2-(2,3-Dihydro-1,4-benzothiazepin-4(5H)-yl)-6-methylquinolin-4-yl]pyrrolidin-3-amine] | 0.208
18 | Cc1cc2c(NCCN)cc(N3CCS(=O)(=O)c4ccccc4C3)nc2c(F)c1F [Example 9-25, N-[2-(1,1-Dioxido-2,3-dihydro-1,4-benzothiazepin-4(5H)-yl)-7,8-difluoro-6-methylquinolin-4-yl]ethane-1,2-diamine] | 4.08

Row | Compound | EC50 [µM]
19 | Cc1ccc2nc(N3CCS(=O)(=O)c4ccccc4C3)cc(NCCOCCN)c2c1 [Example 5-2, N-[2-(2-Aminoethoxy)ethyl]-2-(1,1-dioxido-2,3-dihydro-1,4-benzothiazepin-4(5H)-yl)-6-methylquinolin-4-amine] | 0.211
20 | Cc1ccc2nc(N3CCS(=O)(=O)c4ccccc4C3)cc(N3CCN(C)CC3)c2c1 [Example 5-6, 4-[6-Methyl-4-(4-methylpiperazin-1-yl)quinolin-2-yl]-2,3,4,5-tetrahydro-1,4-benzothiazepine 1,1-dioxide] | 2.06
21 | Cc1ccc2nc(N3CCC(F)(F)c4ccccc4C3)cc(N3C[C@@H](N)[C@H](O)C3)c2c1 (relative stereo) [Example 111-11, trans-4-Amino-1-[2-(5,5-difluoro-1,3,4,5-tetrahydro-2H-2-benzazepin-2-yl)-6-methylquinolin-4-yl]pyrrolidin-3-ol] | 0.588
22 | NCCNc1cc(N2CCCc3ccccc3C2)nc2cccc(Cl)c12 [Example 119, N-[5-Chloro-2-(1,3,4,5-tetrahydro-2H-2-benzazepin-2-yl)quinolin-4-yl]ethane-1,2-diamine] | 6.66
23 | Cc1ccc2nc(N3CC[S+]([O-])c4ccccc4C3)nc(NCC3(NCc4ccccc4)COC3)c2c1 (stereo not shown) [Example 55-2, N-{[3-(Benzylamino)oxetan-3-yl]methyl}-6-methyl-2-(1-oxido-2,3-dihydro-1,4-benzothiazepin-4(5H)-yl)quinazolin-4-amine] | 0.202
24 | Cc1ccc2nc(N3CCS(=O)(=O)c4ccccc4C3)cc(NCC[S+](C)[O-])c2c1 (stereo not shown) [Example 74, 2-(1,1-Dioxido-2,3-dihydro-1,4-benzothiazepin-4(5H)-yl)-6-methyl-N-[2-(methylsulfinyl)ethyl]quinolin-4-amine] | 1.94
25 | Cc1ccc2nc(N3CC[S+]([O-])c4ccccc4C3)cc(NCCN)c2c1 (stereo not shown) [Example 18-10, N-[6-Methyl-2-(1-oxido-2,3-dihydro-1,4-benzothiazepin-4(5H)-yl)quinolin-4-yl]ethane-1,2-diamine] | 0.011
26 | Cc1ccc2nc(N3CCS(=O)(=O)c4ccccc4C3)cc(N3CCC(N)C3)c2c1 (stereo not shown) [Example 25, 1-[2-(1,1-Dioxido-2,3-dihydro-1,4-benzothiazepin-4(5H)-yl)-6-methylquinolin-4-yl]pyrrolidin-3-amine] | 0.002
27 | Cc1ccc2nc(N3CCS(=O)(=O)c4ccccc4C3)cc(NC(=O)[C@@H]3CCCN3)c2c1 [Example 27, N-[2-(1,1-Dioxido-2,3-dihydro-1,4-benzothiazepin-4(5H)-yl)-6-methylquinolin-4-yl]prolinamide] | 2.39
28 | Cc1cc2c(NCCN)cc(N3CCS(=O)(=O)c4ccccc4C3)nc2cc1F [Example 9-24, N-[2-(1,1-Dioxido-2,3-dihydro-1,4-benzothiazepin-4(5H)-yl)-7-fluoro-6-methylquinolin-4-yl]ethane-1,2-diamine] | 0.024
29 | Cc1ccc2nc(N3CCS(=O)(=O)c4ccccc4C3)cc(NCCN3CCNCC3)c2c1 [Example 3-28, 2-(1,1-Dioxido-2,3-dihydro-1,4-benzothiazepin-4(5H)-yl)-6-methyl-N-[2-(piperazin-1-yl)ethyl]quinolin-4-amine] | 0.149
30 | Cc1ccc2nc(N3CCS(=O)(=O)c4ccccc4C3)cc(NC[C@@H]3COC(N)=N3)c2c1 [Example 38-3, N-{[(4R)-2-Amino-4,5-dihydro-1,3-oxazol-4-yl]methyl}-2-(1,1-dioxido-2,3-dihydro-1,4-benzothiazepin-4(5H)-yl)-6-methylquinolin-4-amine] | 0.074
31 | COc1ccc2c(c1)CN(c1cc(N)c3cc(C)ccc3n1)CCS2(=O)=O [Example 20-2, 2-(7-Methoxy-1,1-dioxido-2,3-dihydro-1,4-benzothiazepin-4(5H)-yl)-6-methylquinolin-4-amine] | 0.31
32 | Cc1ccc2nc(N3CCS(=O)(=O)c4ccccc4C3)cc(N[C@@H](C)C(N)=O)c2c1 [Example 36-4, N^˜2^˜-[2-(1,1-dioxido-2,3-dihydro-1,4-benzothiazepin-4(5H)-yl)-6-methylquinolin-4-yl]-L-alaninamide] | 0.138
33 | Cc1ccc2nc(N3CCC(F)(F)c4ccccc4C3)cc(NC3CCCC(N)C3)c2c1 (stereo not shown) [Example 111-7, N-[2-(5,5-Difluoro-1,3,4,5-tetrahydro-2H-2-benzazepin-2-yl)-6-methylquinolin-4-yl]cyclohexane-1,3-diamine] | 0.873
34 | CC(C)(N)CNc1cc(N2CCS(=O)(=O)c3ccccc3C2)nc2ccc(Cl)cc12 [Example 3-26, N^˜1^˜-[6-Chloro-2-(1,1-dioxido-2,3-dihydro-1,4-benzothiazepin-4(5H)-yl)quinolin-4-yl]-2-methylpropane-1,2-diamine] | 0.876
